Measurements as given in BindingDB's records for doi:10.1016/j.bmcl.2003.12.063 (Sankyo, 2004).

Target: Ileal sodium/bile acid cotransporter (Mesocricetus auratus)
Assay: In vitro Inhibition of apical sodium-dependent bile acid transporter by measuring the uptake of [3H]taurocholate in hamster ileal ring

Row | SMILES | IC50 [nM]
1 | CCC(CC)CC(=O)c1c(C(=O)OC)c(-c2ccc(OC)c(OC)c2)c2c(OC)c(OC)c(OC)cc2c1O [1-(3,4-Dimethoxy-phenyl)-3-(3-ethyl-pentanoyl)-4-hydroxy-6,7,8-trimethoxy-naphthalene-2-carboxylic acid methyl ester] | > 185000
2 | CCC(CC)CC(=O)c1c(C(=O)OC)c(-c2ccc(OC)c(OC)c2)c2c(OC)c(OC)c(OC)cc2c1OC1O[C@H](C(=O)O)[C@@H](O)[C@H](O)[C@H]1O (stereo partly drawn) [(2S,3S,4S,5R)-6-[4-(3,4-Dimethoxy-phenyl)-2-(3-ethyl-pentanoyl)-5,6,7-trimethoxy-3-methoxycarbonyl-naphthalen-1-yloxy]-3,4,5-trihydroxy-tetrahydro-pyran-2-carboxylic acid] | 2800
3 | CCCCC1(CCCC)CS(=O)(=O)c2ccc(N(C)C)cc2[C@@H](c2ccc(OC)cc2)[C@H]1O [(4R,5R)-3,3-Dibutyl-7-dimethylamino-5-(4-methoxy-phenyl)-1,1-dioxo-2,3,4,5-tetrahydro-1H-1lambda*6*-benzo[b]thiepin-4-ol] | > 63000

Now those with a lower IC50, led by results:

Row | IC50 [nM] | SMILES
4 | 770 | CCN(C(=O)c1cn(-c2cc(OC)cc(OC)c2)c2cc(OCCCCCCC[N+]34CCN(CC3)CC4)ccc2c1=O)c1cc(F)cc(F)c1 [1-{7-[3-[(3,5-Difluoro-phenyl)-ethyl-carbamoyl]-1-(3,5-dimethoxy-phenyl)-4-oxo-1,4-dihydro-quinolin-7-yloxy]-heptyl}-4-aza-1-azonia-bicyclo[2.2.2]octane; bromide]
5 | 1070 | CCN(C(=O)c1cn(-c2cc(OC)cc(OC)c2)c2cc(OCCCCCCCC[N+]34CCN(CC3)CC4)ccc2c1=O)c1cc(F)cc(F)c1 [1-{8-[3-[(3,5-Difluoro-phenyl)-ethyl-carbamoyl]-1-(3,5-dimethoxy-phenyl)-4-oxo-1,4-dihydro-quinolin-7-yloxy]-octyl}-4-aza-1-azonia-bicyclo[2.2.2]octane; bromide]
